# Data taken from publication PMC7252906 (Toxicology and applied pharmacology, 2019).
# Values joined by “and” are separate entries in the source; they are usually repeats but may differ in a detail not shown here. Identical values can stand only once. Like-named read-outs stand apart in the source and are kept apart here.
# Experiments:
# [1] = Disposition of [^14C]DMAE after single gavage administration, strain comparison; format: in vivo; settings: male Sprague Dawley rats, gavage 500 mg/kg, 24 h
# [2] = Effect of DMAE on serum choline levels and conversion of DMAE to choline; format: in vivo, Wistar Han rats; settings: male rats, gavage 500 mg/kg [^14C]DMAE, 1 h post-dose (remained up to 12 h); pre-dose approximately 17 ng/mL
# [3] = male Wistar rats, IV 11 mg/kg, 6 minutes post-dosing; ref Dormard et al. (1975); cited from earlier work
# [4] = Radiochemical HPLC profiling of urine after [^14C]DMAE; format: in vivo, Harlan Sprague Dawley rats
# [5] = Disposition of DMAE after gavage, rats and mice summarised together; format: in vivo, Wistar Han rats and B6C3F1 mice; settings: range over groups
# [6] = Incorporation of [^14C]DMAE-derived radioactivity in tissue lipids; format: in vivo, Wistar Han rats; settings: gavage 100 mg/kg, 2 h; for Radioactivity in tissue lipids (% dose administered) / Total radioactivity in tissue lipids: male rats
# [7] = female B6C3F1 mice, gavage 10 mg/kg, 24 h
# [8] = female B6C3F1 mice, gavage 10 mg/kg, 24 h, listed as [^14C]DMAE, 10 mg/kg
# [9] = female B6C3F1 mice, gavage 100 mg/kg, 24 h
# [10] = female B6C3F1 mice, gavage 100 mg/kg, 24 h, listed as [^14C]DMAE, 100 mg/kg
# [11] = female B6C3F1 mice, gavage 500 mg/kg, 24 h
# [12] = female B6C3F1 mice, gavage 500 mg/kg, 24 h, listed as [^14C]DMAE, 500 mg/kg
# [13] = female B6C3F1 mice, gavage 500 mg/kg, 72 h
# [14] = male B6C3F1 mice, gavage 500 mg/kg, 24 h
smiles,measurement,setting,value
"CN(C)CCO [DMAE, Dimethylaminoethanol]","% Dose Recovered, CO2",[1],2.94 ± 0.230 % dose
same,"% Dose Recovered, Feces",[1],0.538 ± 0.335 % dose
same,"% Dose Recovered, Tissues and GI Tract (includes contents)",[1],34.1 ± 1.80 % dose
same,"% Dose Recovered, Total Recovered",[1],98.3 ± 3.50 % dose
same,"% Dose Recovered, Urine",[1],60.4 ± 3.80 % dose
same,"% Dose Recovered, VOCs",[1],0.220 ± 0.047 % dose
same,mean serum choline level,[2],~23 ng/mL
same,% of IV dose present in the plasma,[3],0.16%
same,administered dose recovered in tissues (excluding GI tract),"B6C3F1 mice, oral, 24 h post-exposure, range over groups",26–44%
same,"% Dose Recovered, Feces",[7],1.94 ±0.490 % dose
same,"% Dose Recovered, Tissues and GI Tract (includes contents)",[7],57.6 ± 3.00 % dose
same,"% Dose Recovered, Total Recovered",[7],99.3 ± 1.60 % dose
same,"% Dose Recovered, VOCs",[7],1.66 ± 0.340 % dose
same,"percent radioactivity remaining in all tissues, excluding GI tract",[7],~44%
same,"% Dose Recovered, CO2",[8],22 % dose and 22.3 ± 3.68 % dose
same,"% Dose Recovered, Urine",[8],16 % dose and 15.8 ± 4.00 % dose
same,"% Dose Recovered, Feces",[9],1.10 ± 0.410 % dose
same,"% Dose Recovered, Tissues and GI Tract (includes contents)",[9],44.5 ± 1.70 % dose
same,"% Dose Recovered, Total Recovered",[9],81.6 ± 4.40 % dose
same,"% Dose Recovered, VOCs",[9],1.27 ± 0.160 % dose
same,"percent radioactivity remaining in all tissues, excluding GI tract",[9],~30%
same,"% Dose Recovered, CO2",[10],16 % dose and 15.5 ± 0.600 % dose
same,"% Dose Recovered, Urine",[10],18 % dose and 17.9 ± 3.90 % dose
same,"% Dose Recovered, Feces",[11],0.713 ± 0.273 % dose
same,"% Dose Recovered, Tissues and GI Tract (includes contents)",[11],38.4 ± 16.1 % dose
same,"% Dose Recovered, Total Recovered",[11],97.1 ± 15.2 % dose
same,"% Dose Recovered, VOCs",[11],1.51 ± 0.210 % dose
same,"percent radioactivity remaining in all tissues, excluding GI tract",[11],~32%
same,"% Dose Recovered, CO2",[12],13 % dose and 13.2 ± 1.80 % dose
same,"% Dose Recovered, Urine",[12],43 % dose and 43.4 ± 11.5 % dose
same,"% Dose Recovered, CO2",[13],21.0 ± 2.20 % dose
same,"% Dose Recovered, Feces",[13],2.24 ± 1.31 % dose
same,"% Dose Recovered, Tissues and GI Tract (includes contents)",[13],19.0 ± 3.70 % dose
same,"% Dose Recovered, Total Recovered",[13],97.2 ± 6.40 % dose
same,"% Dose Recovered, Urine",[13],53.8 ± 3.90 % dose
same,"% Dose Recovered, VOCs",[13],1.08 ± 0.190 % dose
same,total administered dose recovered in tissues,[13],16%
same,radioactivity in feces and VOCs,"female B6C3F1 mice, gavage, across all dose groups",< 2%
same,"% Dose Recovered, CO2",[14],17.8 ± 1.10 % dose
same,"% Dose Recovered, Feces",[14],13.7 ± 14.9 % dose
same,"% Dose Recovered, Tissues and GI Tract (includes contents)",[14],31.8 ± 1.50 % dose
same,"% Dose Recovered, Total Recovered",[14],92.1 ± 13.6 % dose
same,"% Dose Recovered, Urine",[14],27.1 ± 20.0 % dose
same,"% Dose Recovered, VOCs",[14],1.75 ± 0.319 % dose
same,excretion in urine,"mice, gavage, range over groups",16–43%
same,excreted as exhaled CO2,"mice, range over groups",13–22%
same,total percentage of administered dose recovered,"mouse studies, range over groups",82–99%
same,Estimated percentage of area of DMAE peak in urine chromatogram,"[4]; Rat/Female, [^14C]DMAE 500 mg/kg, Oral",55%
same,Estimated percentage of area of DMAE peak in urine chromatogram,"[4]; Rat/Male, [^14C]DMAE 10 mg/kg, IV",3%
same,Estimated percentage of area of DMAE peak in urine chromatogram,"[4]; Rat/Male, [^14C]DMAE 10 mg/kg, Oral",95%
same,Estimated percentage of area of DMAE peak in urine chromatogram,"[4]; Rat/Male, [^14C]DMAE 100 mg/kg, Oral",56%
same,Estimated percentage of area of DMAE peak in urine chromatogram,"[4]; Rat/Male, [^14C]DMAE 500 mg/kg, Oral",34%
same,excreted as exhaled CO2,[5],3–22%
same,excreted in urine,[5],16–69%
same,tissue retention,[5],21–44%
same,highest level of radioactivity incorporated into lipids in any tissues,[6]; male Wistar Han rats,~ 1 % of the administered dose
same,Radioactivity in tissue lipids (% dose administered),"[6]; Brain, Fatty Acids",0.020 % dose
same,Total radioactivity in tissue lipids,"[6]; Brain, Fatty Acids",34
same,Radioactivity in tissue lipids (% dose administered),"[6]; Brain, Neutral Lipids",0.075 % dose
same,Total radioactivity in tissue lipids,"[6]; Brain, Neutral Lipids",107
same,Radioactivity in tissue lipids (% dose administered),"[6]; Brain, Phospholipids",0.097 % dose
same,Total radioactivity in tissue lipids,"[6]; Brain, Phospholipids",167
same,Radioactivity in tissue lipids (% dose administered),"[6]; Heart, Fatty Acids",0.010 % dose
same,Total radioactivity in tissue lipids,"[6]; Heart, Fatty Acids",17
same,Radioactivity in tissue lipids (% dose administered),"[6]; Heart, Neutral Lipids",0.028 % dose
same,Total radioactivity in tissue lipids,"[6]; Heart, Neutral Lipids",40
same,Radioactivity in tissue lipids (% dose administered),"[6]; Heart, Phospholipids",0.188 % dose
same,Total radioactivity in tissue lipids,"[6]; Heart, Phospholipids",323
same,Radioactivity in tissue lipids (% dose administered),"[6]; Kidney, Fatty Acids",0.047 % dose
same,Total radioactivity in tissue lipids,"[6]; Kidney, Fatty Acids",81
same,Radioactivity in tissue lipids (% dose administered),"[6]; Kidney, Neutral Lipids",0.029 % dose
same,Total radioactivity in tissue lipids,"[6]; Kidney, Neutral Lipids",41
